Reference: patent publication US20250326708A1, “LONG-ACTING SPLEEN-TARGETING CATIONIC LIPID COMPOUND COMPRISING BENZENE RING STRUCTURE, COMPOSITION COMPRISING SAME, AND USE THEREOF” (Beijing Youcarekechuang Pharmaceutical Technology Co., Ltd., priority 2024, published 2025)
Several values for one entry are separate records, joined by “and”; a condition that tells them apart may be missing. Identical values can stand only once.

How the values were obtained:
293T cells [1] = test: Fluorescence detection of Fluc-mRNA (transfection efficiency) of LNP preparations; type: cell-based; settings: Fluc-mRNA LNP
Procedure, shortened: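 293T cells seeded at 10,000 per well in 96-well plates overnight, then dosed with LNPs (cationic lipid:DSPC:cholesterol:DMG-PEG2000 49:10:39.5:1.5 molar; total lipid:mRNA 15:1 w/w) carrying 0.3 μg Fluc-mRNA. After 24 h, luciferase kit reagents added and fluorescence intensity per well read by IVIS imaging.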

female BALB/C mice [2] = test: Expression of delivered mRNA in different organs of mice (organ imaging); type: in vivo
Experimental: LNP preparations containing 5 μg of Fluc-mRNA were subcutaneously injected into female BALB/C mice (4 to 6 weeks old, weighing 17 to 19 g). At specified time points after administration (6 h), the mice were intraperitoneally injected with fluorescent imaging substrates and allowed to move freely for 5 minutes. The average radiation intensity (corresponding to fluorescence intensity) of proteins expressed by the mRNA delivered by the LNP preparations in the mice in vivo was then detected using the IVIS Spectrum small-animal in vivo imaging system. After sampling, the mice were killed by cervical dislocation and dissected, and the internal organs: heart, liver, spleen, lung, kidney, and lymph of mice were accurately isolated. The average radiation intensity (corresponding to fluorescence intensity) of proteins expressed by the mRNA delivered by the LNP preparations in various organs of mice was then detected using the IVIS Spectrum small-animal in vivo imaging system.

[3] = Particle size and polydispersity index (PDI) of lipid nanoparticles, dynamic light scattering; type: physicochemical; settings: LNP preparation with the named cationic lipid; 90° scattering angle, 25° C
Procedure, shortened: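 LNPs of cationic lipid:DSPC:cholesterol:DMG-PEG2000 (49:10:39.5:1.5 molar) encapsulating eGFP or Fluc mRNA at 15:1 lipid:mRNA weight ratio, made by ethanol injection into citrate buffer pH 4–5, sonication, and ultrafiltration into PBS. Size and PDI by DLS at 90° and 25° C after dilution in water, three measurements per sample.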

293T cells [4] = test: Cell viability assay (CCK-8) with LNP preparations of Fluc-mRNA; type: cell-based
Procedure, shortened: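 293T cells seeded at 10,000/well and cultured overnight, then given LNPs (cationic lipid:DSPC:cholesterol:DMG-PEG2000 49:10:39.5:1.5) carrying 1.5 μg Fluc-mRNA. After 24 h, viability measured by CCK-8 with 1 h incubation.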

female BALB/C mice [5] = test: Expression of delivered mRNA in mice in vivo (IVIS in vivo imaging); settings: for Expression level of mRNA in vivo, times that of YK-904: vs YK-904; for Average radiation intensity, in vivo imaging: 10 μg Fluc-mRNA via tail vein; for Expression level of mRNA in vivo, times that of SM-102: vs SM-102; for Expression level of mRNA in vivo, times that of YK-501: vs YK-501; for Expression level of mRNA in vivo, times that of YK-506: vs YK-506; for Expression level of mRNA in vivo, times that of compound 7: vs compound 7
Experimental: LNP preparations containing 10 μg of Fluc-mRNA were injected via the tail vein into female BALB/C mice (4 to 6 weeks old, weighing 17 to 19 g). At specified time points after administration (6 h, 24 h, 48 h, and 7 d), the mice were intraperitoneally injected with fluorescent imaging substrates and allowed to move freely for 5 minutes. The average radiation intensity (corresponding to fluorescence intensity) of proteins expressed by the mRNA delivered by the LNP preparations in the mice in vivo was then detected using the IVIS Spectrum small-animal in vivo imaging system.

[6] = 6 hours after 5 μg Fluc-mRNA subcutaneously

- PDI [3]: 10.3%
- Particle size [3]: 126 nm
Compound: CCCCCCCCCCCOC(=O)CCCN(CCCCCCC(=O)OCCC(CCCCCC)CCCCCC)CCNC(CO)(CO)CCc1ccc(CCCCCCCC)cc1 [YK-910, 3-hexylnonyl 7-((2-((1-hydroxy-2-(hydroxymethyl)-4-(4-octylphenyl)butan-2-yl)amino)ethyl) (4-oxo-4-(undecyloxy)butyl)amino) heptanoate]
- Cellular transfection efficiency, times that of HHMA (293T cells [1]; vs HHMA): 8.53 times
- Cellular transfection efficiency, times that of I-1 (293T cells [1]; vs I-1): 42.56 times
- Cellular transfection efficiency, times that of Lipofectamine 3000 (293T cells [1]; vs Lipofectamine 3000): 10.24 times
- Cellular transfection efficiency, times that of MC3 (293T cells [1]; vs MC3): 90.92 times
- Cellular transfection efficiency, times that of SM-102 (293T cells [1]; vs SM-102): 6.04 times
- Cellular transfection efficiency, times that of YK-501 (293T cells [1]; vs YK-501): 186.59 times
- Cellular transfection efficiency, times that of YK-506 (293T cells [1]; vs YK-506): 13.19 times
- Cellular transfection efficiency, times that of YK-903 (293T cells [1]; vs YK-903): 345.06 times
- Cellular transfection efficiency, times that of YK-906 (293T cells [1]; vs YK-906): 313 times and 313.25 times
- Cellular transfection efficiency, times that of compound 7 (293T cells [1]; vs compound 7): 33.51 times
- Average radiation intensity of mouse organs: Heart (female BALB/C mice [2]; [6]): 0
- Average radiation intensity of mouse organs: Kidney (female BALB/C mice [2]; [6]): 0
- Average radiation intensity of mouse organs: Liver (female BALB/C mice [2]; [6]): 11424
- Average radiation intensity of mouse organs: Lung (female BALB/C mice [2]; [6]): 0
- Average radiation intensity of mouse organs: Lymph (female BALB/C mice [2]; [6]): 0
- Average radiation intensity of mouse organs: Spleen (female BALB/C mice [2]; [6]): 242444
- Expression level of mRNA in the spleen, times that of SM-102 (female BALB/C mice [2]; spleen, 6 h, vs SM-102): 9.49 times
- Expression level of mRNA in the spleen, times that of YK-501 (female BALB/C mice [2]; spleen, 6 h, vs YK-501): 17.04 times
- Expression level of mRNA in the spleen, times that of YK-506 (female BALB/C mice [2]; spleen, 6 h, vs YK-506): 3.40 times
- Cell viability (293T cells [4]; LNP with 1.5 μg Fluc-mRNA, 24 hours, CCK-8): 94%
- Cell viability higher than that of HHMA (293T cells [4]; difference vs HHMA): 17%
- Cell viability higher than that of I-1 (293T cells [4]; difference vs I-1): 26%
- Cell viability higher than that of Lipofectamine 3000 (293T cells [4]; difference vs Lipofectamine 3000): 63%
- Cell viability higher than that of MC3 (293T cells [4]; difference vs MC3): 20%
- Cell viability higher than that of SM-102 (293T cells [4]; difference vs SM-102): 12%
- Cell viability higher than that of YK-501 (293T cells [4]; difference vs YK-501): 31%
- Cytotoxicity lower than that of YK-902 (293T cells [4]; difference vs YK-902): 58%
- Cell viability higher than that of YK-906 (293T cells [4]; difference vs YK-906): 31%
- Cell viability higher than that of compound 7 (293T cells [4]; difference vs compound 7): 21%
- Expression level of mRNA in vivo, times that of YK-904 (female BALB/C mice [5]; 6 h): 12.03 times
- Average radiation intensity, in vivo imaging (female BALB/C mice [5]; 6 h): 13425454
- Expression level of mRNA in vivo, times that of SM-102 (female BALB/C mice [5]; 24 h): 6.78 times
- Expression level of mRNA in vivo, times that of YK-501 (female BALB/C mice [5]; 24 h): 12.21 times
- Expression level of mRNA in vivo, times that of YK-506 (female BALB/C mice [5]; 24 h): 8.28 times
- Expression level of mRNA in vivo, times that of YK-904 (female BALB/C mice [5]; 24 h): 18.49 times
- Expression level of mRNA in vivo, times that of compound 7 (female BALB/C mice [5]; 24 h): 11.50 times
- Average radiation intensity, in vivo imaging (female BALB/C mice [5]; 24 h): 2133322
- Expression level of mRNA in vivo, times that of YK-904 (female BALB/C mice [5]; 48 h): 23.07 times
- Average radiation intensity, in vivo imaging (female BALB/C mice [5]; 48 h): 658643
- Expression level of mRNA in vivo, times that of SM-102 (female BALB/C mice [5]; 7 d): 9.24 times
- Expression level of mRNA in vivo, times that of YK-501 (female BALB/C mice [5]; 7 d): 15.15 times
- Expression level of mRNA in vivo, times that of YK-506 (female BALB/C mice [5]; 7 d): 2.49 times
- Expression level of mRNA in vivo, times that of YK-904 (female BALB/C mice [5]; 7 d): 26.32 times
- Expression level of mRNA in vivo, times that of compound 7 (female BALB/C mice [5]; 7 d): 10.03 times
- Average radiation intensity, in vivo imaging (female BALB/C mice [5]; 7 d): 85363
